For eleven compounds, IC50 results are on record in patent US20220168427A1 (Ranok Therapeutics (Hangzhou) Co. Ltd., priority 2019, published 2022).

The target of one series is HSP90α (Homo sapiens, UniProt P07900). Put plainly: HSP90α Binding Fluorescent Polarization (FP) Assay. To be noted: competition with FITC-geldanamycin; read-out: HSP90 Binding Potency. In short, it runs like this: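 Competitive FP assay in which compound displaces FITC-geldanamycin from recombinant HSP90α (28 μg/ml before addition) in BSA-containing buffer. Compounds in 3-fold series from 40 μM to 2.0 nM (dilution-plate concentrations), tested in duplicate. Readings after 30, 60 and 120 min at 25 °C; background-subtracted mP fitted to four-parameter log[inhibitor]-response curve.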

The next series addresses T1, BRD4 (BD1+BD2) (Homo sapiens, UniProt O60885).
T1 construct: 1.8 μg/ml recombinant BRD4 (BD1+BD2 domains) protein
To be noted: read-out: BRD4 Binding Potency.

Another series has as its system MV4-11 cells. The series can be described thus: MV4-11 Cell Cytotoxicity Assay. Type of series: cell-based, human. The settings on record: human, MV4-11 cells, CCK-8. The text has this: % Inhibition=100−(D−B)/(S−B)*100%.
S: The absorbance of the maximum (cells with DMSO)
B: The absorbance of the minimum (medium with DMSO)

As to `Cc1sc2c(c1C)C(c1ccc(Cl)cc1)=N[C@@H](CC(=O)N(C)[C@H](C)c1ccc(CN3CCC(Cc4ccc(-n5c(O)nnc5-c5cc(C(C)C)c(O)cc5O)cc4)CC3)cc1)c1nnc(C)n1-2` [Compound 93, 2-((S)-4-(4-chlorophenyl)-2,3,9-trimethyl-6H-thieno[3,2-f][1,2,4]triazolo[4,3-a][1,4]diazepin-6-yl)-N—((R)-1-(4-((4-(4-(3-(2,4-dihydroxy-5-isopropylphenyl)-5-hydroxy-4H-1,2,4-triazol-4-yl)benzyl)piperidin-1-yl)methyl)phenyl)ethyl)-N-methylacetamide, trifluoroacetic acid], the IC50 on HSP90α and at BRD4 (BD1+BD2) was 100 to 1000 nM throughout. The IC50 at 72 h with MV4-11 cells was less than 100 nM.

For `Cc1sc2c(c1C)C(c1ccc(Cl)cc1)=N[C@@H](CC(=O)NCCOCCOCCN[C@@H](C)C(=O)N[C@H](C(=O)N1CCC[C@H]1C(=O)Nc1snnc1-c1ccccc1)C1CCCCC1)c1nnc(C)n1-2` [Compound 128, (S)-1-((2S,5S)-17-((S)-4-(4-chlorophenyl)-2,3,9-trimethyl-6H-thieno[3,2-f][1,2,4]triazolo[4,3-a][1,4]diazepin-6-yl)-2-cyclohexyl-5-methyl-4,16-dioxo-9,12-dioxa-3,6,15-triazaheptadecanoyl)-N-(4-phenyl-1,2,3-thiadiazol-5-yl)pyrrolidine-2-carboxamide], the IC50 at HSP90α and at BRD4 (BD1+BD2) was greater than 1000 nM throughout. Also, the IC50 at 72 h in the series with MV4-11 cells was greater than 1000 nM.

On to `Cc1sc2c(c1C)C(c1ccc(Cl)cc1)=NC(CC(=O)N1CCC(Cc3ccc(CN(C)Cc4ccc(-n5c(C(=O)NCC(F)(F)F)nnc5-c5cc(C(C)C)c(O)cc5O)cc4)cc3)CC1)c1nnc(C)n1-2` (stereo in doubt) [Compound 84, (S)-4-(4-(((4-((1-(2-(4-(4-chlorophenyl)-2,3,9-trimethyl-6H-thieno[3,2-f][1,2,4]triazolo[4,3-a][1,4]diazepin-6-yl)acetyl)piperidin-4-yl)methyl)benzyl)(methyl)amino)methyl)phenyl)-5-(2,4-dihydroxy-5-isopropylphenyl)-N-(2,2,2-trifluoroethyl)-4H-1,2,4-triazole-3-carboxamide, trifluoroacetic acid], for which the IC50 at HSP90α was 100 to 1000 nM; at BRD4 (BD1+BD2), greater than 1000 nM. Moreover, in the series with MV4-11 cells, the IC50 at 72 h is less than 100 nM.

For `CCNC(=O)c1nnc(-c2cc(CC)c(O)cc2O)n1-c1ccc(CC2CCN(CC3CCN(C(=O)C[C@@H]4N=C(c5ccc(Cl)cc5)c5c(sc(C)c5C)-n5c(C)nnc54)CC3)CC2)cc1` [Compound 87, (S)-4-(4-((1-((1-(2-(4-(4-chlorophenyl)-2,3,9-trimethyl-6H-thieno[3,2-f][1,2,4]triazolo[4,3-a][1,4]diazepin-6-yl)acetyl)piperidin-4-yl)methyl)piperidin-4-yl)methyl)phenyl)-N-ethyl-5-(5-ethyl-2,4-dihydroxyphenyl)-1H-1,2,414-triazole-3-carboxamide, trifluoroacetic acid], the IC50 on HSP90α and on BRD4 (BD1+BD2) was 100 to 1000 nM in each case. The IC50 at 72 h with MV4-11 cells is less than 100 nM.

In the case of `COc1cccc(-c2cc(C(=O)Nc3ccc(-c4ccc(OC5CCN(C)CC5)cc4OCCN(C)C(=O)C[C@@H]4N=C(c5ccc(Cl)cc5)c5c(sc(C)c5C)-n5c(C)nnc54)cc3)ccc2OC)c1` [Compound 136], the IC50 on HSP90α is greater than 1000 nM; at BRD4 (BD1+BD2) it was 100 to 1000 nM. Besides, the IC50 at 72 h with MV4-11 cells lay in the range of 100 to 1000 nM.

`CCc1cc(-c2nnc(C(=O)NCC(F)(F)F)n2-c2ccc(CN3CCN(CC4CCN(C(=O)C[C@@H]5N=C(c6ccc(Cl)cc6)c6c(sc(C)c6C)-n6c(C)nnc65)CC4)CC3)cc2)c(O)cc1O` [Compound 14, 4-(4-((4-((1-(2-((6S)-4-(4-chlorophenyl)-2,3,9-trimethyl-6H-thieno[3,2-f][1,2,4]triazolo[4,3-a][1,4]diazepin-6-yl)acetyl)piperidin-4-yl)methyl)piperazin-1-yl)methyl)phenyl)-5-(5-ethyl-2,4-dihydroxyphenyl)-N-(2,2,2-trifluoroethyl)-4H-1,2,4-triazole-3-carboxamide, trifluoroacetic acid]: the IC50 at HSP90α was 100 to 1000 nM; at BRD4 (BD1+BD2) it was greater than 1000 nM. In the series with MV4-11 cells, the IC50 at 72 h is less than 100 nM.

As for `COc1cccc(-c2cc(C(=O)Nc3ccc(-c4ccc(OC5CCN(C(=O)CNC(=O)C[C@@H]6N=C(c7ccc(Cl)cc7)c7c(sc(C)c7C)-n7c(C)nnc76)CC5)cc4O)cc3)ccc2OC)c1` [Compound 134], the IC50 on HSP90α and on BRD4 (BD1+BD2) was greater than 1000 nM in each case. In addition, in the series with MV4-11 cells, the IC50 at 72 h was greater than 1000 nM.

Turning to `Cc1sc2c(c1C)C(c1ccc(Cl)cc1)=N[C@@H](CC(=O)N1CCC(CN3CCN(Cc4ccc(-n5c(C(=O)NC(C)C)nnc5-c5ccc(O)cc5O)cc4)CC3)CC1)c1nnc(C)n1-2` [Compound 119, (S)-4-(4-((4-((1-(2-(4-(4-chlorophenyl)-2,3,9-trimethyl-6H-thieno[3,2-f][1,2,4]triazolo[4,3-a][1,4]diazepin-6-yl)acetyl)piperidin-4-yl)methyl)piperazin-1-yl)methyl)phenyl)-5-(2,4-dihydroxyphenyl)-N-isopropyl-4H-1,2,4-triazole-3-carboxamide, trifluoroacetic acid], the IC50 is 100 to 1000 nM at HSP90α and less than 100 nM at BRD4 (BD1+BD2). The same compound came in with an IC50 at 72 h in the series with MV4-11 cells of less than 100 nM.

For `Cc1cc(-c2nnc(C(=O)NCC(F)(F)F)n2-c2ccc(CN3CCN(CC4CCN(C(=O)C[C@@H]5N=C(c6ccc(Cl)cc6)c6c(sc(C)c6C)-n6c(C)nnc65)CC4)CC3)cc2)c(O)cc1O` [Compound 15, 4-(4-((4-((1-(2-((6S)-4-(4-chlorophenyl)-2,3,9-trimethyl-6H-thieno[3,2-f][1,2,4]triazolo[4,3-a][1,4]diazepin-6-yl)acetyl)piperidin-4-yl)methyl)piperazin-1-yl)methyl)phenyl)-5-(2,4-dihydroxy-5-methylphenyl)-N-(2,2,2-trifluoroethyl)-4H-1,2,4-triazole-3-carboxamide, trifluoroacetic acid], the IC50 is 100 to 1000 nM at HSP90α and greater than 1000 nM at BRD4 (BD1+BD2). In the series with MV4-11 cells, the IC50 at 72 h is less than 100 nM.

Take `Cc1sc2c(c1C)C(c1ccc(Cl)cc1)=N[C@@H](CC(=O)N1CCC(CN3CCN(Cc4ccc(-n5c(O)nnc5-c5cc(C(C)C)c(O)cc5O)cc4F)CC3)CC1)c1nnc(C)n1-2` [Compound 17, (S)-2-(4-(4-chlorophenyl)-2,3,9-trimethyl-6H-thieno[3,2-f][1,2,4]triazolo[4,3-a][1,4]diazepin-6-yl)-1-(4-((4-(4-(3-(2,4-dihydroxy-5-isopropylphenyl)-5-hydroxy-4H-1,2,4-triazol-4-yl)-2-fluorobenzyl)piperazin-1-yl)methyl)piperidin-1-yl)ethan-1-one, trifluoroacetic acid]: the IC50 at HSP90α was 100 to 1000 nM; on BRD4 (BD1+BD2), greater than 1000 nM. For the same compound, the IC50 at 72 h in the series on MV4-11 cells was less than 100 nM.

As to `CCc1cc(-c2nnc(O)n2-c2ccc(CNC(=O)C[C@@H]3N=C(c4ccc(Cl)cc4)c4c(sc(C)c4C)-n4c(C)nnc43)cc2)c(O)cc1O` [Compound 56, 2-((6S)-4-(4-chlorophenyl)-2,3,9-trimethyl-6H-thieno[3,2-f][1,2,4]triazolo[4,3-a][1,4]diazepin-6-yl)-N-(4-(3-(5-ethyl-2,4-dihydroxyphenyl)-5-hydroxy-4H-1,2,4-triazol-4-yl)benzyl)acetamide], the IC50 on HSP90α and at BRD4 (BD1+BD2) was 100 to 1000 nM each time. This compound also registered an IC50 at 72 h in the series on MV4-11 cells of 100 to 1000 nM.
